Patent publication US20250221410A1, “SUBSTITUTED 2-C-AZINES AND SALTS THEREOF, AND USE THEREOF AS HERBICIDAL ACTIVE SUBSTANCES” (BAYER AKTIENGESELLSCHAFT, priority 2022, published 2025)

Tests used:
Format in all cases: in vivo
[1] = test system: ECHCG: Echinochloa crus-galli; test: Post-emergence herbicidal efficacy at 1280 g/ha, ECHCG; settings: rated visually after about 3 weeks vs untreated controls, 100% = plants have died, 0% = like control plants
Experimental: (§1) Seeds of mono- and dicotyledonous weed plants were placed in plastic pots in sandy loam soil (doubly sown with in each case one species of mono- or dicotyledonous weed plants per pot), covered with soil and cultivated in a greenhouse under controlled growth conditions. 2 to 3 weeks after sowing, the test plants were treated at the one-leaf stage. The compounds of the invention, formulated in the form of wettable powders (WP) or as emulsion concentrates (EC), were applied to the green parts of the plants as aqueous suspension or emulsion with addition of 0.5% additive at a water application rate equivalent to 600 litres per hectare. After the test plants had been kept in the greenhouse under optimum growth conditions for about 3 weeks, the activity of the preparations was rated visually in comparison to untreated controls. For example, 100% activity=the plants have died, 0% activity=like control plants. Tables A1 to A12 below show the effects of selected compounds of the general formula (I) according to Table 1 on various harmful plants and at an application rate corresponding to 1280 g/ha, which were obtained by the trial procedure specified above.

[2] = test system: VERPE: Veronica persica; test: Post-emergence herbicidal efficacy at 1280 g/ha, VERPE; settings: visual rating about 3 weeks after treatment vs untreated controls
Experimental: as §1

[3] = test system: DIGSA: Digitaria sanguinalis; test: Pre-emergence herbicide efficacy at 1280 g/ha, DIGSA; settings: visual scoring after about 3 weeks vs untreated controls
Excerpt: (§2) Seeds of mono- and dicotyledonous weed plants were placed in plastic pots in sandy loam soil (doubly sown with one species each of mono- or dicotyledonous weed plants per pot) and covered with soil. The compounds of the invention, formulated in the form of wettable powders (WP) or as emulsion concentrates (EC), were then applied to the surface of the covering soil as aqueous suspension or emulsion with addition of 0.5% additive at a water application rate of 600 litres per hectare (converted). After the treatment, the pots were placed in a greenhouse and kept under good growth conditions for the test plants. After about 3 weeks, the efficacy of the preparations was scored visually in comparison with untreated controls as percentages. For example, 100% activity=the plants have died, 0% activity=like control plants. Tables C1 to C12 below show the effects of selected compounds of the general formula (I) according to Table 1 on various harmful plants and at an application rate corresponding to 1280 g/ha, which were obtained by the trial procedure specified above.

[4] = test system: DIGSA: Digitaria sanguinalis; test: Post-emergence herbicidal efficacy at 1280 g/ha, DIGSA; settings: rated visually after about 3 weeks vs untreated controls, 100% = plants have died, 0% = like control plants
Experimental: as §1

[5] = test system: VERPE: Veronica persica; test: Pre-emergence herbicide efficacy at 1280 g/ha, VERPE; settings: visual scoring vs untreated controls
Excerpt: as §2

[6] = test system: STEME: Stellaria media; test: Post-emergence herbicidal efficacy at 1280 g/ha, STEME; settings: visual rating about 3 weeks after treatment vs untreated controls
Experimental: as §1

[7] = test system: AMARE: Amaranthus retroflexus; test: Pre-emergence herbicide efficacy at 1280 g/ha, AMARE; settings: visual scoring after about 3 weeks vs untreated controls
Excerpt: as §2

[8] = test system: POAAN: Poa annua; test: Pre-emergence herbicide efficacy at 1280 g/ha, POAAN; settings: visual scoring after about 3 weeks vs untreated controls
Excerpt: as §2

[9] = test system: ABUTH: Abutilon theophrasti; test: Post-emergence herbicidal efficacy at 1280 g/ha, ABUTH; settings: rated visually after about 3 weeks vs untreated controls, 100% = plants have died, 0% = like control plants
Experimental: as §1

[10] = test system: STEME: Stellaria media; test: Pre-emergence herbicide efficacy at 1280 g/ha, STEME; settings: visual scoring vs untreated controls
Excerpt: as §2

[11] = test system: AMARE: Amaranthus retroflexus; test: Post-emergence herbicidal efficacy at 1280 g/ha, AMARE; settings: rated visually after about 3 weeks vs untreated controls, 100% = plants have died, 0% = like control plants
Experimental: as §1

[12] = test system: ECHCG: Echinochloa crus-galli; test: Pre-emergence herbicide efficacy at 1280 g/ha, ECHCG; settings: visual scoring after about 3 weeks vs untreated controls
Excerpt: as §2

[13] = test system: KCHSC: Kochia scoparia; test: Post-emergence herbicidal efficacy at 1280 g/ha, KCHSC; settings: visual rating about 3 weeks after treatment vs untreated controls
Experimental: as §1

[14] = test system: SETVI: Setaria viridis; test: Post-emergence herbicidal efficacy at 1280 g/ha, SETVI; settings: visual rating about 3 weeks after treatment vs untreated controls
Experimental: as §1

[15] = test system: SETVI: Setaria viridis; test: Pre-emergence herbicide efficacy at 1280 g/ha, SETVI; settings: visual scoring vs untreated controls
Excerpt: as §2

[16] = test system: POAAN: Poa annua; test: Post-emergence herbicidal efficacy at 1280 g/ha, POAAN; settings: visual rating about 3 weeks after treatment vs untreated controls
Experimental: as §1

[17] = test system: KCHSC: Kochia scoparia; test: Pre-emergence herbicide efficacy at 1280 g/ha, KCHSC; settings: visual scoring after about 3 weeks vs untreated controls
Excerpt: as §2

[18] = test system: ABUTH: Abutilon theophrasti; test: Pre-emergence herbicide efficacy at 1280 g/ha, ABUTH; settings: visual scoring after about 3 weeks vs untreated controls
Excerpt: as §2

Row | Structure (SMILES) | Post-emergence efficacy at 1280 g/ha against ECHCG in % [1] [%] | Post-emergence efficacy against VERPE [2] [%] | Pre-emergence efficacy against DIGSA [3] [%] | Post-emergence efficacy at 1280 g/ha against DIGSA in % [4] [%] | Pre-emergence efficacy against VERPE in % [5] [%] | Post-emergence efficacy against STEME [6] [%] | Pre-emergence efficacy against AMARE [7] [%] | Pre-emergence efficacy against POAAN [8] [%] | Post-emergence efficacy at 1280 g/ha against ABUTH in % [9] [%] | Pre-emergence efficacy against STEME in % [10] [%] | Post-emergence efficacy at 1280 g/ha against AMARE in % [11] [%] | Pre-emergence efficacy against ECHCG [12] [%] | Post-emergence efficacy against KCHSC [13] [%] | Post-emergence efficacy against SETVI [14] [%] | Pre-emergence efficacy against SETVI in % [15] [%] | Post-emergence efficacy against POAAN [16] [%] | Pre-emergence efficacy against KCHSC [17] [%] | Pre-emergence efficacy against ABUTH [18] [%]
1 | N#Cc1cccc(Cc2ncc(Cl)cn2)c1Oc1ccc(F)cc1 [Example 1-38] | 100 | 100 | 100 | 90 | 100 | 100 | 100 | 100 | 100 | 100 | 100 | 100 | 100 | 90 | 100 | 90 |  | 
2 | Fc1ccc(Oc2ccccc2Cc2ncc(Br)cn2)cc1 [Example 1-87] | 90 | 100 | 100 |  |  | 90 | 100 |  | 100 |  | 100 | 90 | 100 | 90 | 100 | 100 |  | 
3 | Fc1cnc(Cc2ccccc2Oc2ncc(Cl)cc2F)nc1 [Example 1-90] |  | 100 | 100 | 90 | 100 | 90 | 100 | 100 | 90 | 90 | 100 | 100 | 100 |  | 90 | 100 | 100 | 100
4 | Fc1ccc(Sc2ccccc2Cc2ncc(Cl)cn2)cc1 [Example 1-99] | 100 | 90 | 100 | 90 |  | 100 | 100 | 100 | 90 | 100 | 100 | 100 | 100 | 90 | 100 | 100 |  | 90
5 | Fc1cc(Cl)cnc1Oc1ccccc1Cc1ccc(Cl)cn1 [Example 1-101] | 90 | 100 | 100 |  |  | 90 | 100 | 100 | 90 | 100 | 100 | 100 |  |  | 100 | 100 |  | 90
